# Measured values reported in PubChem BioAssay (NCI).
# Values joined by “and” are separate entries in the source; they are usually repeats but may differ in a detail not shown here. Equal entries are not always repeated.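 Cells were grown in 96-well plates and exposed to each compound for 48 hours at five concentrations; endpoints were interpolated linearly between bracketing concentrations, or set to the highest concentration if not reached. Here, GI50 denotes the concentration required for 50% inhibition of growth. TGI is the concentration that stops growth completely.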
# Columns and labels:
# Test in all cases: NCI tumour cell line growth inhibition, 48 h
# [1] = system: MCF7 breast
# [2] = system: 786-0 renal
# [3] = system: HOP-62 NSCLC
# [4] = system: BT-549 breast
# [5] = system: HOP-92 NSCLC
# [6] = system: MDA-MB-231 breast
# [7] = system: ACHN renal
# [8] = system: PC-3 prostate
# [9] = system: SW-620 colon
# [10] = system: SF-268 CNS
SMILES,GI50 [1],TGI [1],GI50 [2],TGI [2],GI50 [3],TGI [3] [µM],GI50 [4],TGI [4],GI50 [5],TGI [5],TGI [6],GI50 [7],TGI [7],GI50 [8],TGI [8],GI50 [9],TGI [9],GI50 [10],TGI [10],GI50 [6]
COC(=O)C1=C2C3=C(C(=O)c4ccccc4C3=O)N(Cc3ccccc3)C2(OC(C)=O)C=CC1=O (stereo unspecified),3.73 µM,> 100 µM,2.28 µM,10.1 µM,2.94 µM,13.7,6.9 µM,34.8 µM,0.85 µM,19.7 µM,8.05 µM,8.4 µM,26.4 µM,2.36 µM,19.2 µM,17.2 µM,94 µM,2.86 µM,23.6 µM,
CCc1ccc(/C(C#N)=C/C=C/c2ccccc2)cc1,1.14 µM,> 100 µM,11.1 µM,> 100 µM,2.83 µM,> 100,7.86 µM,> 59.8 µM,2.28 µM,78.8 µM,> 76.7 µM,8.41 µM,> 100 µM,3.15 µM,> 100 µM,1.22 µM,> 100 µM,19.3 µM,> 100 µM,5.84 µM
COc1ccc(C2=C(Br)C(=O)OC2)cc1Cl,29.6 µM,> 93 µM,34 µM,> 100 µM,44.4 µM,> 100,22.7 µM,64.7 µM,45.2 µM,> 100 µM,69.9 µM,19.3 µM,39.9 µM,33.1 µM,> 91.5 µM,32.2 µM,> 100 µM,32.9 µM,99.6 µM,24.7 µM
COc1cc2c3c(n(CCCN=[N+]=[N-])c(=O)c2cc1OC)-c1ccc(N)cc1C3=O,0.143 µM,,0.16 µM,0.431 µM,0.118 µM,0.666,0.244 µM,6.4 µM,0.163 µM,0.86 µM,2.18 µM,0.102 µM,1.02 µM,0.27 µM,3.58 µM,0.203 µM,3.69 µM,0.34 µM,> 32.4 µM,0.625 µM
CCCCC(SC(=S)N(CC)CC)C(=O)Nc1nc(CC(=O)OCC)cs1 (stereo unspecified),,,> 100 µM,> 100 µM,> 100 µM,> 100,39 µM,> 100 µM,53.1 µM,> 100 µM,> 100 µM,67.3 µM,> 100 µM,0.776 µM,> 100 µM,38 µM,> 100 µM,54.3 µM,> 100 µM,47.8 µM
CCN1CCN(CCNc2nccc(-c3c(-c4cccc(O)c4)nc4sccn34)n2)S1(=O)=O,26 µM and 19.5 µM,32.5 µM and > 100 µM,22.1 µM and 7.86 µM,32.5 µM and > 100 µM,> 32.5 µM and 26.4 µM,> 100,20.4 µM and 6.31 µM,32.5 µM and 76.6 µM,6.2 µM and 0.671 µM,32.5 µM and 69.9 µM,32.5 µM and > 100 µM,6.72 µM and 4.13 µM,32 µM and > 100 µM,17.6 µM and 20.1 µM,32.5 µM and > 100 µM,21.1 µM and 15.7 µM,32.5 µM and 92.5 µM,23.4 µM and 19.9 µM,32.5 µM and > 100 µM,10.5 µM and 7.3 µM
